Test results reported in patent publication US20240279218A1 (Hoffmann-La Roche Inc., priority 2016, published 2024).
pKi: −log10 of the molar value.

Columns and labels:
h-GABA-A α5β3γ2 [1] = biological target: T1, h-GABA-A α5β3γ2 (Homo sapiens (Human), UniProt P18507+P31644); assay: Two-electrode voltage clamp electrophysiology in Xenopus oocytes expressing GABAA receptors, modulation of GABA EC20 current; assay type: cell-based; conditions: Xenopus oocytes; for Efficacy (GABA) %: % modulation of GABA EC20 = 100*(Fold increase−1); for Fold increase h-GABA-A α5β3γ2 oocyte: GABA EC20, test compound at approx. 30 fold its Ki
Procedure, shortened: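 Values are % modulation of an EC20 GABA response, derived point by point from the ratio of compound-exposed versus control current traces (extremum taken, 100×(fold−1)). Recordings used oocytes injected with human α5, β3, γ2 mRNA, clamped at −80 mV at room temperature, at least 3 oocytes each.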

h-GABA-A α5β3γ2 [2] = biological target: T1, h-GABA-A α5β3γ2; assay: [3H]flumazenil competition binding assay, membranes of HEK293 cells expressing human GABAA receptors; conditions: displacement of [3H]flumazenil 0.5 nM, HEK293 cells expressing human receptors, mean of two determinations; read-out: Ki h-GABA-A α5β3γ2
Procedure, shortened: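 Displacement of [3H]flumazenil from membranes of HEK293 cells transiently expressing human α5β3γ2 receptors, in Krebs-tris buffer pH 7.5. Incubation to equilibrium, 1 h at 4° C., then filtration and scintillation counting. Ki is the mean of two determinations.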

Efficacy (GABA) % (h-GABA-A α5β3γ2 [1])	Fold increase h-GABA-A α5β3γ2 oocyte (h-GABA-A α5β3γ2 [1])	pKi (h-GABA-A α5β3γ2 [2])	Compound
89%	1.89	8.34	Cc1ccc(-c2noc(C)c2COc2ccc(C(=O)NC3(C)CCS(=O)(=O)CC3)nn2)cn1 [Example 111, N-(4-methyl-1,1-dioxidotetrahydro-2H-thiopyran-4-yl)-6-((5-methyl-3-(6-methylpyridin-3-yl)isoxazol-4-yl)methoxy)pyridazine-3-carboxamide]
43%	1.43	8.19	Cc1ccc(-c2noc(C)c2COc2ccc(C(=O)N3CC4(C3)CS(=O)(=O)C4)nn2)cn1 [Example 112, (2,2-dioxido-2-thia-6-azaspiro[3.3]heptan-6-yl)(6-((5-methyl-3-(6-methylpyridin-3-yl)isoxazol-4-yl)methoxy)pyridazin-3-yl)methanone]
28%	1.28	7.47	Cc1ccc(-c2noc(C)c2COc2cnc(C(=O)N3CC4(C3)CS(=O)(=O)C4)cn2)cn1 [Example 113, (2,2-dioxido-2-thia-6-azaspiro[3.3]heptan-6-yl)(5-((5-methyl-3-(6-methylpyridin-3-yl)isoxazol-4-yl)methoxy)pyrazin-2-yl)methanone]
74%	1.74	7.55	Cc1ccc(-c2noc(C)c2COc2ccc(C(=O)NC3(C)CCCC3)nn2)cn1 [Example 114, 6-((5-methyl-3-(6-methylpyridin-3-yl)isoxazol-4-yl)methoxy)-N-(1-methylcyclopentyl)pyridazine-3-carboxamide]
139%	2.39	7.29	Cc1ccc(-c2noc(C)c2COc2cnc(C(=O)NCCCC(F)(F)F)cn2)cn1 [Example 115, 5-((5-methyl-3-(6-methylpyridin-3-yl)isoxazol-4-yl)methoxy)-N-(4,4,4-trifluorobutyl)pyrazine-2-carboxamide]
59%	1.59	8.31	Cc1ccc(-c2noc(C)c2COc2ccc(C(=O)NC3CN(C(C)C)C3)nn2)cn1 [Example 116, N-(1-isopropylazetidin-3-yl)-6-((5-methyl-3-(6-methylpyridin-3-yl)isoxazol-4-yl)methoxy)pyridazine-3-carboxamide]
99%	1.99	7.81	Cc1ccc(-c2noc(C)c2COc2cc3c(cn2)C(=O)N(C2CC4(COC4)C2)C3)cn1 [Example 117, 6-((5-methyl-3-(6-methylpyridin-3-yl)isoxazol-4-yl)methoxy)-2-(2-oxaspiro[3.3]heptan-6-yl)-1H-pyrrolo[3,4-c]pyridin-3(2H)-one]
88%	1.88	7.91	Cc1ccc(-c2noc(C)c2COc2ccc(C(=O)NC3(C)CCC3)nn2)cn1 [Example 118, 6-((5-methyl-3-(6-methylpyridin-3-yl)isoxazol-4-yl)methoxy)-N-(1-methylcyclobutyl)pyridazine-3-carboxamide]
102%	2.02	7.51	CCc1onc(-c2ccc(C)nc2)c1COc1ccc(C(=O)NC2CCOCC2)cn1 [Example 119, 6-((5-ethyl-3-(6-methylpyridin-3-yl)isoxazol-4-yl)methoxy)-N-tetrahydropyran-4-yl-pyridine-3-carboxamide]
160%	2.6	7.28	CCc1onc(-c2ccc(C)nc2)c1COc1ccc(C(=O)NC2CCS(=O)(=O)CC2)cn1 [Example 120, N-(1,1-dioxidotetrahydro-2H-thiopyran-4-yl)-6-((5-ethyl-3-(6-methylpyridin-3-yl)isoxazol-4-yl)methoxy)pyridine-3-carboxamide]

More lines, now with the values behind:

Compound	Efficacy (GABA) % (h-GABA-A α5β3γ2 [1])	Fold increase h-GABA-A α5β3γ2 oocyte (h-GABA-A α5β3γ2 [1])	pKi (h-GABA-A α5β3γ2 [2])
Cc1ccc(-c2noc(C)c2COc2cnc(C(=O)N[C@H]3CC[C@@H](C(F)(F)F)CC3)cn2)cn1 [Example 102, 5-((5-methyl-3-(6-methylpyridin-3-yl)isoxazol-4-yl)methoxy)-N-(cis-4-(trifluoromethyl)cyclohexyl)pyrazine-2-carboxamide]	21%	1.21	7.68
Cc1ccc(-c2noc(C)c2COc2ccc(C(=O)N[C@H]3CCCOC3)nn2)cn1 [Example 103, (S)-6-((5-methyl-3-(6-methylpyridin-3-yl)isoxazol-4-yl)methoxy)-N-(tetrahydropyran-3-yl)pyridazine-3-carboxamide]	81%	1.81	7.10
Cc1ccc(-c2noc(C)c2COc2cnc(C(=O)N[C@H]3CC[C@@](C)(O)CC3)cn2)cn1 [Example 104, N-(cis-4-hydroxy-4-methylcyclohexyl)-5-((5-methyl-3-(6-methylpyridin-3-yl)isoxazol-4-yl)methoxy)pyrazine-2-carboxamide]	43%	1.43	7.18
Cc1ccc(-c2noc(C)c2COc2cnc(C(=O)N[C@H]3CC[C@](C)(O)CC3)cn2)cn1 [Example 105, N-(trans-4-hydroxy-4-methylcyclohexyl)-5-((5-methyl-3-(6-methylpyridin-3-yl)isoxazol-4-yl)methoxy)pyrazine-2-carboxamide]	101%	2.01	7.64
Cc1ccc(-c2noc(C)c2COc2ccc(C(=O)NC3(C)CCOCC3)cn2)cn1 [Example 106, 6-((5-methyl-3-(6-methylpyridin-3-yl)isoxazol-4-yl)methoxy)-N-(4-methyltetrahydropyran-4-yl)nicotinamide]	64%	1.64	7.22
Cc1ccc(-c2noc(C)c2COc2cc3c(cn2)C(=O)N(C2CCSCC2)C3)cn1 [Example 107, 6-((5-methyl-3-(6-methylpyridin-3-yl)isoxazol-4-yl)methoxy)-2-(tetrahydro-2H-thiopyran-4-yl)-1H-pyrrolo[3,4-c]pyridin-3(2H)-one]	69%	1.69	8.02
Cc1ccc(-c2noc(C)c2COc2ccc(C(=O)NC3CCOCC3)cn2)nn1 [Example 108, 6-((5-methyl-3-(6-methylpyridazin-3-yl)isoxazol-4-yl)methoxy)-N-tetrahydropyran-4-yl-pyridine-3-carboxamide]	20%	1.2	9.40
CCC[C@@H](CO)NC(=O)c1ccc(OCc2c(-c3ccc(C)nn3)noc2C)nc1 [Example 109, N-((1S)-1-(hydroxymethyl)butyl)-6-((5-methyl-3-(6-methylpyridazin-3-yl)isoxazol-4-yl)methoxy)pyridine-3-carboxamide]	42%	1.42	9.10
Cc1ccc(-c2noc(C)c2COc2ccc(C(=O)NC3(C)CCSCC3)nn2)cn1 [Example 110, 6-((5-methyl-3-(6-methylpyridin-3-yl)isoxazol-4-yl)methoxy)-N-(4-methyltetrahydrothiopyran-4-yl)pyridazine-3-carboxamide]	65%	1.65	7.81
